Experimental data taken from US7405303B2, “Substituted quinoline compounds for use as selective estrogen receptor modulator” (SmithKline Beecham Corporation, priority 2004, dated 2008).
Where two headings read alike, the source gives them in different places.

Key:
[1] = biological target: T1, GST-hERβ (ligand binding domain) (Homo sapiens, UniProt Q92731); assay: SPA competition binding assay, ERβ; details: for Avg. ER β pKi: SPA competition binding vs 1 nM [3H]estradiol, apparent Ki, n = 2
T1 construct: made in house; host or cells: E. coli BL21 (DE3)pLYS S
T1 sequence (Q92731 264-498 limits assumed): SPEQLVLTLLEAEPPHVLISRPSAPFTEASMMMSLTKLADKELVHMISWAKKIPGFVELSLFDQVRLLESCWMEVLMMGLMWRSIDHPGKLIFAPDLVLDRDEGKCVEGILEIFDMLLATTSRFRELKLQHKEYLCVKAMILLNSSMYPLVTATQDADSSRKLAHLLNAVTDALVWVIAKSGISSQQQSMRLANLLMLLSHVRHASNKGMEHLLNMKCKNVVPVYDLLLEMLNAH
Description: The ligand binding domain of both ERα and ERβ were sub-cloned into pGEX-2T vector which had been modified to contain KpnI and BamHI restriction sites in the multiple cloning region. GST-hERα and GST-hERβ proteins were made by transforming BL21 (DE3)pLYS S competent cells with the appropriate expression plasmid. […] The cells were collected by centrifugation and resuspended in lysis buffer (50 mM Tris pH 7.9; 250 mM KCl; 1% Triton X-100; 10 mM DTT; 1 mM PMSF). […] The supernatant was retained and glycerol was added to a final concentration of 10%. The protein content of the supernatant was quantitated using the BioRad Protein Assay Reagent. The protein was then stored at −80° C. until used in the binding assay.
(§1) Polylysine coated Yttrium Silicate SPA beads (Amersham #RPNQ 0010) are resuspended in assay buffer [10 mM potassium phosphate buffer pH 7.0 containing 2 mM EDTA, 50 mM NaCl, 1 mM DTT, 2 mM CHAPS, 10% glycerol] to a concentration of 1 g/60 ml. […] [2,4,6,7,16,17-3H(N)]-Estradiol is added as a 30 ul aliquot to give a final assay concentration of 1 nM. […] The plates are shaken vigorously for two hours then counted on a Packard TopCount using the protocol for counting tritium yttrium silicate SPA beads. Data analysis was done by standard methods. % Bound was calculated for each concentration of each test compound using the equation % Bound=100*((Test−NS)/(T−NS)). % Bound was plotted vs concentration and curve fitting was accomplished using non-linear regression.

[2] = biological target: T2, GST-hERα (ligand binding domain) (Homo sapiens, UniProt P03372); assay: SPA competition binding assay, ERα; details: for Avg. ER α pKi: SPA competition binding vs 1 nM [3H]estradiol, apparent Ki, n = 2; for Ki: read-out: Avg. ER α pKi (converted)
T2 construct: made in house; host or cells: E. coli BL21 (DE3)pLYS S
T2 sequence (P03372 311-547 limits assumed): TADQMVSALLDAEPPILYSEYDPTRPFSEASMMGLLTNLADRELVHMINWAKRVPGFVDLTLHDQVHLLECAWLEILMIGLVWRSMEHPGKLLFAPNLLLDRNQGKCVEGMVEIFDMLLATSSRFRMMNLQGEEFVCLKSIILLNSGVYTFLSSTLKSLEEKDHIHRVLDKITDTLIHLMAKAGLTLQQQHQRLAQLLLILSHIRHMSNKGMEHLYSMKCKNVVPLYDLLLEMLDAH
Description: The ligand binding domain of both ERα and ERβ were sub-cloned into pGEX-2T vector which had been modified to contain KpnI and BamHI restriction sites in the multiple cloning region. GST-hERα and GST-hERβ proteins were made by transforming BL21 (DE3)pLYS S competent cells with the appropriate expression plasmid. […] The cells were collected by centrifugation and resuspended in lysis buffer (50 mM Tris pH 7.9; 250 mM KCl; 1% Triton X-100; 10 mM DTT; 1 mM PMSF). The lysate was then placed on dry ice until completely frozen The frozen lysate was thawed and centrifuged 20 min at 4° C. at 80K rpm in a TLA 100.2 rotor in a Beckman TL-100 ultracentrifuge. The supernatant was retained and glycerol was added to a final concentration of 10%. The protein content of the supernatant was quantitated using the BioRad Protein Assay Reagent. The protein was then stored at −80° C. until used in the binding assay.
as §1, with “ml. 30 ul (0.5 mg) of the SPA beads are then added to each well of a Packard OptiPlate (Packard 6005190, Packard Instruments, Meriden, Conn.).” for “ml.”

Row | Avg. ER β pKi [1] | Avg. ER α pKi [2] | Ki [1] [µM] | Ki [2] [µM] | Ki ([1]; read-out: Avg. ER β pKi (converted)) [µM] | Molecule
1 | 7.64 | 7.55 | – | – | – | 4-[(7-Hydroxy-2-ethyl-3-phenyl-4-quinolinyl)oxyphenyl]-2-propeno-N-piperidineamide [Example 5]
2 | 6.17 | 5.53 | – | – | – | 4-[(7-Hydroxy-2-phenyl-3-phenyl-4-quinolinyl)oxyphenyl]-2-propenoic acid [Example 9]
3 | – | – | 0.0282 | 0.0148 | – | CCc1nc2cc(O)ccc2c(Oc2ccc(/C=C/C(N)=O)cc2)c1-c1ccccc1 [Example 2, 4-[(7-Hydroxy-2-ethyl-3-phenyl-4-quinolinyl)oxyphenyl]-2-propenoamide]
4 | – | – | – | 1.55 | – | CCc1nc2cc(O)ccc2c(Oc2cccc(/C=C/C(=O)O)c2)c1-c1ccccc1 [Example 10, 3-[(7-Hydroxy-2-ethyl-3-phenyl-4-quinolinyl)oxyphenyl]-2-propenoic acid]
5 | – | – | – | 3.16 | 1.82 | CCc1nc2cc(O)ccc2c(Sc2ccc(/C=C/C(N)=O)cc2)c1-c1ccccc1 [Example 11, 4-[(7-Hydroxy-2-ethyl-3-phenyl-4-quinolinyl)thiophenyl]-2-propenoamide]

More lines, now with the values behind:

Row | Molecule | Avg. ER β pKi [1] | Avg. ER α pKi [2] | Ki [1] [µM] | Ki [2] [µM] | Ki ([1]; read-out: Avg. ER β pKi (converted)) [µM]
6 | 4-[(7-Hydroxy-2-ethyl-3-(3-trifluoromethylphenyl)-4-quinolinyl)oxyphenyl]-2-propenoic acid [Example 8] | 6.57 | 7.05 | – | – | –
7 | 4-[(7-Hydroxy-2-ethyl-3-(3-trifluoromethylphenyl]-4-quinolinyl)oxyphenyl]-2-propeno-N-isopropylamide [Example 7] | 7.26 | 7.51 | – | – | –
8 | 4-[(7-Hydroxy-2-ethyl-3-phenyl-4-quinolinyl)oxyphenyl]-2-propeno-N,N-dimethylamide [Example 4] | 7.74 | 7.95 | – | – | –
9 | 4-[(7-Hydroxy-2-ethyl-3-phenyl-4-quinolinyl)oxyphenyl]-2-propeno-N-isopropylamide [Example 3] | 7.76 | 8.01 | – | – | –
10 | 4-[(7-Hydroxy-2-ethyl-3-phenyl-4-quinolinyl)oxyphenyl]-2-propenonitrile [Example 6] | 7.50 | 7.59 | – | – | –
